The text below walks through data of patent US7429660B2, “ATM inhibitors” (Kudos Pharmaceuticals Limited, priority 2003, dated 2008).

Structures are written as SMILES.

For this test, the target named is T1, ATM protein immunoprecipitated from HeLa cell nuclear extract (Homo sapiens, UniProt Q13315).
T1 construct: ATM protein was immunoprecipitated from HeLa cell nuclear extract; endogenous in cells; host or cells: HeLa cell nuclear extract (immunoprecipitated with rabbit polyclonal anti-ATM antiserum)
T1 sequence (Q13315 whole entry): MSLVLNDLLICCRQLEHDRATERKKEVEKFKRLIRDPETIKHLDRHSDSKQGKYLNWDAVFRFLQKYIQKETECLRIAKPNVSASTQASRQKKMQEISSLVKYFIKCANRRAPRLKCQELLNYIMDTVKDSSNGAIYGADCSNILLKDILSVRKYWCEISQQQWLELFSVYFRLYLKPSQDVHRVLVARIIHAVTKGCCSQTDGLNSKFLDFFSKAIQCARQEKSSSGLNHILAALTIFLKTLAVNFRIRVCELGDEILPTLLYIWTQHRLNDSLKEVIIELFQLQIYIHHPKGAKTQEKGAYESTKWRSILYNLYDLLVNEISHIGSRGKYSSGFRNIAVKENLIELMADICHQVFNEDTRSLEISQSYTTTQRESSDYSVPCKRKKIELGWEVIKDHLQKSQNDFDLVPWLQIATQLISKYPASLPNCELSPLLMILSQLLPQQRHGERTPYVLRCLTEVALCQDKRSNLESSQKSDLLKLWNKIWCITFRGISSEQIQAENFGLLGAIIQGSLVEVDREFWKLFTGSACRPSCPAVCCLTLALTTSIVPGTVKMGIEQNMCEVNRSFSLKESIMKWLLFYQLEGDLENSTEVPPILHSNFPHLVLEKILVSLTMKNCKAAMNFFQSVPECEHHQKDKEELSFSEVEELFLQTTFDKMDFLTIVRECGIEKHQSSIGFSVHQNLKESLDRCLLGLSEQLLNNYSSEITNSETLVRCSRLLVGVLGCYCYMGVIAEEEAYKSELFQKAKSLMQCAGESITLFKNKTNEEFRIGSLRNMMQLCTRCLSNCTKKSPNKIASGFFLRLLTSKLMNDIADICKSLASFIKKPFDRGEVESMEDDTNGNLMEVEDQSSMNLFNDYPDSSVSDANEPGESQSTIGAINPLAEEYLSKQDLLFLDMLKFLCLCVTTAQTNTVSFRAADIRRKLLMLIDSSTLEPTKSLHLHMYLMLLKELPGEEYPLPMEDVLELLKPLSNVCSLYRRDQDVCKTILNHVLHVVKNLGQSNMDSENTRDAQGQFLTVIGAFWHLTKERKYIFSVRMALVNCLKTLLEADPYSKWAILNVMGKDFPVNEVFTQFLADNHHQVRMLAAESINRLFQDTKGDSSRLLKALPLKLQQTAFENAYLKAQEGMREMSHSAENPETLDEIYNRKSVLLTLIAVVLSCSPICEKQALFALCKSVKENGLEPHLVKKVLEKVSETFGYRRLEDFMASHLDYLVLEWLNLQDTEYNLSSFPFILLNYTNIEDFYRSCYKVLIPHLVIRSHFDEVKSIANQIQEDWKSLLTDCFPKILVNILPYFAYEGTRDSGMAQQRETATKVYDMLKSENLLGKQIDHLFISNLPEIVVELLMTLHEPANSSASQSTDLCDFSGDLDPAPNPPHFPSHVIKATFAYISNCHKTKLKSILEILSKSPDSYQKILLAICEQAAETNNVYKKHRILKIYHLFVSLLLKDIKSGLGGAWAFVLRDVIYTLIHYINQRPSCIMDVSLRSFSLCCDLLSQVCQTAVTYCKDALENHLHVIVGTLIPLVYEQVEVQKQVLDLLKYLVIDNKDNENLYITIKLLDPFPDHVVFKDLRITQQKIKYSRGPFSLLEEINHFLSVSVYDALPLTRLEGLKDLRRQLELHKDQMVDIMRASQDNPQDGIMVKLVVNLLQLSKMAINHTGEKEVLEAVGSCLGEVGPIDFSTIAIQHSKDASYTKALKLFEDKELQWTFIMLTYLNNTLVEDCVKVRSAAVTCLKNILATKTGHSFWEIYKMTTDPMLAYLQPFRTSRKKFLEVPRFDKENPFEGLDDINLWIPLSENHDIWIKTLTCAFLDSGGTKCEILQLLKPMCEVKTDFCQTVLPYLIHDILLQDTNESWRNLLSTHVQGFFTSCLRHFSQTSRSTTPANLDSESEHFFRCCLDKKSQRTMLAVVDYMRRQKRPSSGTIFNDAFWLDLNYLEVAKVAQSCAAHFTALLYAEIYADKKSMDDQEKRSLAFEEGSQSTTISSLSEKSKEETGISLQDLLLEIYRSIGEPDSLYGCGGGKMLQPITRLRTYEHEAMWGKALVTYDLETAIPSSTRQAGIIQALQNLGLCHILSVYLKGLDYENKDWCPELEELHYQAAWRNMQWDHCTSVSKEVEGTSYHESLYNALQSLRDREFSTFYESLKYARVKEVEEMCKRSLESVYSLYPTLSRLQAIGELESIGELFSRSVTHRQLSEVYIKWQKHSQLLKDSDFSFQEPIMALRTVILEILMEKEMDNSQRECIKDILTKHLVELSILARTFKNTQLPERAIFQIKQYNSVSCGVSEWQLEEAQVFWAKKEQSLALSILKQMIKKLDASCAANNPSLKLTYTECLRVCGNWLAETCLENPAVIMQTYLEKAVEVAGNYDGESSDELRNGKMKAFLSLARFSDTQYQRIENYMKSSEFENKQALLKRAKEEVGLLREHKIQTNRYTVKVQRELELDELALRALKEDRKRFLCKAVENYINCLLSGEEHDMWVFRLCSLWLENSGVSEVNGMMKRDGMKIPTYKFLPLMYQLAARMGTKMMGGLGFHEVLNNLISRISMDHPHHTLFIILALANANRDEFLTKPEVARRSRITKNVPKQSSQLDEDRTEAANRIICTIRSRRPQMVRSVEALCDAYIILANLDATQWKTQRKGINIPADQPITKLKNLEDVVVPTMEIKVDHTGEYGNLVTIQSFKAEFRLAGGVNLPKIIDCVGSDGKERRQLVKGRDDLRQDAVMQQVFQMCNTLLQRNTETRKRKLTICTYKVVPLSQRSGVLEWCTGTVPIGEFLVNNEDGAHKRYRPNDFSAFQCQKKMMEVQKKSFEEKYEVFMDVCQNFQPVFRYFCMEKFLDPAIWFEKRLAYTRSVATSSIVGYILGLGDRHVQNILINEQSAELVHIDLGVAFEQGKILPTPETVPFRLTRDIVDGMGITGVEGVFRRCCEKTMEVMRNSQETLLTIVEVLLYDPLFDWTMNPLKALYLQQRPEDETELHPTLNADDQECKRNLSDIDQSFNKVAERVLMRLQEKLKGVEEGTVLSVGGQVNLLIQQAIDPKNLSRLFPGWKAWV
Kind of test: In vitro ATM inhibition assay (phosphorylation of GSTp53N66 on serine 15, chemiluminescent detection). Note: tested normally from 100 µM down to 0.1 nM. The test is classed as biochemical. The note with it: read-out: IC50 values (the concentration at which 50% of the enzyme activity is inhibited), ATM inhibition. The essentials:
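Immunoprecipitated HeLa nuclear ATM (C-terminal anti-sera) with GSTp53N66 substrate in Hepes pH 7.4 buffer with MgCl2/MnCl2; inhibitor preincubated 10 min at 37 °C, then Na-ATP added, 1 h at 37 °C.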
For the compound `O=C(COc1ccc2c(c1)Sc1cccc(-c3cc(=O)cc(N4CCOCC4)o3)c1S2)N1CCN(C(=O)c2ccco2)CC1` [Compound 414], the IC50 is below 200 nM.

In the case of `O=c1cc(-c2cccc3c2Sc2ccccc2N3CCCNc2nc(-c3ccccc3)ns2)oc(N2CCOCC2)c1` [Compound 330], the IC50 was below 200 nM.

As for `O=C(CN1CCCNCC1)Nc1ccc2c(c1)Sc1cccc(-c3cc(=O)cc(N4CCOCC4)o3)c1S2` [Compound 61], the IC50 was below 200 nM.

In the case of `CN1CCC(NCCCN2c3ccccc3Sc3c(-c4cc(=O)cc(N5CCOCC5)o4)cccc32)CC1` [Compound 307], the IC50 was below 200 nM.

For the compound `CC(C)(C)OC(=O)N1CCCN(CCCN2c3ccccc3Sc3c(-c4cc(=O)cc(N5CCOCC5)o4)cccc32)CC1` [Compound 333], the IC50 is below 200 nM.

On to `O=C(COc1ccc2c(c1)Cc1cccc(-c3cc(=O)cc(N4CCOCC4)o3)c1S2)NC1CCC1` [Compound 499], for which the IC50 is below 200 nM.

For `CN1CCCN(CCC(=O)Nc2ccc3c(c2)Sc2cccc(-c4cc(=O)cc(N5CCOCC5)o4)c2S3)CC1` [Compound 99], the IC50 was below 200 nM.

On to `CCOC(=O)CN1CCN(CCCN2c3ccccc3Sc3c(-c4cc(=O)cc(N5CCOCC5)o4)cccc32)CC1=O` [Compound 299], for which the IC50 was below 200 nM.

Regarding `O=C(Nc1ccc2c(c1)Sc1cccc(-c3cc(=O)cc(N4CCOCC4)o3)c1S2)c1csc(-c2cccs2)n1` [Compound 46], the IC50 is below 200 nM.

Take `COCCN1CCN(C(=O)c2ccc3c(c2)Sc2cccc(-c4cc(=O)cc(N5CCOCC5)o4)c2S3)CC1` [Compound 17]: the IC50 was below 200 nM.

`O=C(CCCCC1SC[C@@H]2NC(=O)N[C@H]12)NCCCCCC(=O)NCCNCCCN1c2ccccc2Sc2c(-c3cc(=O)cc(N4CCOCC4)o3)cccc21` (stereo partly shown) [Compound 336]: the IC50 is below 200 nM.

As to `O=c1cc(-c2cccc3c2Sc2ccc(S(=O)(=O)NC(CO)CO)cc2C3)oc(N2CCOCC2)c1` [Compound 466], the IC50 was below 200 nM.

As for `CCN(CC)CCCN1c2ccccc2Sc2c(-c3cc(=O)cc(N4CCOCC4)o3)cccc21` [Compound 244], the IC50 is below 200 nM.

As for `O=C(CCN1CCOCC1)Nc1ccc2c(c1)Sc1cccc(-c3cc(=O)cc(N4CCOCC4)o3)c1S2` [Compound 91], the IC50 was below 200 nM.

For `O=c1cc(-c2cccc3c2Sc2ccccc2N3CCCNCc2cccnc2)oc(N2CCOCC2)c1` [Compound 267], the IC50 was below 200 nM.

Regarding `O=C(CSc1ncn[nH]1)Nc1ccc2c(c1)Sc1cccc(-c3cc(=O)cc(N4CCOCC4)o3)c1S2` [Compound 65], the IC50 was below 200 nM.

As to `CCCCNC(=O)COc1ccc2c(c1)Sc1cccc(-c3cc(=O)cc(N4CCOCC4)o3)c1S2` [Compound 407], the IC50 was below 200 nM.

Regarding `CCCNCCOc1ccc2c(c1)Sc1cccc(-c3cc(=O)cc(N4CCOCC4)o3)c1S2` [Compound 383], the IC50 is below 200 nM.

Turning to `O=C(c1ccco1)N1CCN(CCOc2ccc3c(c2)Sc2cccc(-c4cc(=O)cc(N5CCOCC5)o4)c2S3)CC1` [Compound 395], the IC50 is below 200 nM.

For `CC(=O)N1CCN(CCC(=O)Nc2ccc3c(c2)Cc2cccc(-c4cc(=O)cc(N5CCOCC5)o4)c2S3)CC1` [Compound 349], the IC50 was below 200 nM.

In the case of `COc1cc(C(=O)Nc2ccc3c(c2)Sc2cccc(-c4cc(=O)cc(N5CCOCC5)o4)c2S3)cc(OC)c1OC` [Compound 40], the IC50 is below 200 nM.

With `Cn1nc(O)cc1C(=O)Nc1ccc2c(c1)Sc1cccc(-c3cc(=O)cc(N4CCOCC4)o3)c1S2` [Compound 37], the IC50 is below 200 nM.

On to `COCCOCC(=O)Nc1ccc2c(c1)Sc1cccc(-c3cc(=O)cc(N4CCOCC4)o3)c1S2` [Compound 48], for which the IC50 was below 200 nM.

On to `CN1CCCN(C(=O)COc2ccc3c(c2)Sc2cccc(-c4cc(=O)cc(N5CCOCC5)o4)c2S3)CC1` [Compound 442], for which the IC50 is below 200 nM.

In the case of `O=C(CCN1CCN(c2ccccn2)CC1)Nc1ccc2c(c1)Cc1cccc(-c3cc(=O)cc(N4CCOCC4)o3)c1S2` [Compound 353], the IC50 was below 200 nM.

For the compound `O=c1cc(-c2cccc3c2Sc2ccccc2N3CCCNCC2CCCCC2)oc(N2CCOCC2)c1` [Compound 253], the IC50 was below 200 nM.

`CCNCCCOc1ccc(-c2cc(=O)cc(N3CCOCC3)o2)c2c1Sc1ccccc1S2` [Compound 172]: the IC50 was below 200 nM.

Consider `O=C(Nc1ccc2c(c1)Sc1cccc(-c3cc(=O)cc(N4CCOCC4)o3)c1S2)c1cccnc1` [Compound 28], for which the IC50 was below 200 nM.

With `O=C(CNCc1ccncc1)Nc1ccc2c(c1)Sc1cccc(-c3cc(=O)cc(N4CCOCC4)o3)c1S2` [Compound 71], the IC50 was below 200 nM.

Regarding `CN1CCN(CCOc2ccc3c(c2)Sc2cccc(-c4cc(=O)cc(N5CCOCC5)o4)c2S3)CC1` [Compound 361], the IC50 is below 200 nM.

For the compound `CCN1CCCC1CNCC(=O)Nc1ccc2c(c1)Sc1cccc(-c3cc(=O)cc(N4CCOCC4)o3)c1S2` (stereo not shown) [Compound 87], the IC50 is below 200 nM.
